# In PubChem BioAssay AID330 (DTP/NCI, 2004):
# “And” between values parts separate entries of the source, which are not always exact repeats. Equal values may be shown once. Toxic doses and inconclusive results are not listed. Square brackets hold non-standard residues; d marks the D form. Peptide text beside a SMILES is read from it. * marks the point of attachment. ξ: configuration not given here. Ac5c = NC1(C(=O)O)CCCC1; Cbz = O=C(OCc1ccccc1)*; ξV = CC(C)C(N)C(=O)O
# System: P388 leukemia ip, CD2F1 mice, survival T/C
# Test: NCI In Vivo Anticancer Drug Screen. Data for tumor model P388 Leukemia (intraperitoneal) in CD2F1 (CDF1) mice
# Settings: endpoint: median survival time, higher = longer survival
# Summary of the method: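 Mice carrying the transplanted tumor received test compound or vehicle. Survival was recorded in each group, and the value is the treated-group measurement divided by that of the vehicle-treated control group.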
# [1] = dose: 50.0 mg/kg/injection, schedule: Q01DX005 (ip), vehicle: saline with Tween-80
# [2] = dose: 60.0 mg/kg/injection, schedule: Q01DX005 (ip), vehicle: saline with Tween-80
# [3] = dose: 120.0 mg/kg/injection, schedule: Q01DX005 (ip), vehicle: saline with Tween-80
# [4] = dose: 240.0 mg/kg/injection, schedule: Q01DX005 (ip), vehicle: saline with Tween-80
# [5] = dose: 60.0 mg/kg/injection, schedule: Q01DX005 (ip), vehicle: Klucel (hydroxypropylcellulose) (HPC)
# [6] = dose: 120.0 mg/kg/injection, schedule: Q01DX005 (ip), vehicle: Klucel (hydroxypropylcellulose) (HPC)
# [7] = dose: 50.0 mg/kg/injection, schedule: Q01DX009 (ip), vehicle: saline
# [8] = dose: 100.0 mg/kg/injection, schedule: Q01DX009 (ip), vehicle: saline
# [9] = dose: 100.0 mg/kg/injection, schedule: Q01DX005 (ip), vehicle: saline with Tween-80
# [10] = dose: 200.0 mg/kg/injection, schedule: Q01DX005 (ip), vehicle: saline with Tween-80
compound,measurement,setting,value
O=S1CCS(=O)C1c1ccccc1 (configuration not stated),T/C,"dose: 50.0 mg/kg/injection, schedule: Q01DX005 (ip), vehicle: other",99 % of control
same,T/C,"dose: 100.0 mg/kg/injection, schedule: Q01DX005 (ip), vehicle: other",103 % of control
Cc1c2oc3c(C)ccc(C(=O)NCCc4ccccc4)c3nc-2c(C(=O)NCCc2ccccc2)c(N)c1=O,T/C,"dose: 50.0 mg/kg/injection, schedule: Q04DX003 (ip), vehicle: DMSO",92 % of control
same,T/C,"dose: 100.0 mg/kg/injection, schedule: Q04DX003 (ip), vehicle: DMSO",91 % of control
same,T/C,"dose: 200.0 mg/kg/injection, schedule: Q04DX003 (ip), vehicle: DMSO",90 % of control
CC1=C[P+](c2ccccc2)(c2ccccc2)C=C(c2ccccc2)O1,T/C,"dose: 3.12 mg/kg/injection, schedule: Q01DX005 (ip), vehicle: saline",105 % of control
same,T/C,"dose: 6.25 mg/kg/injection, schedule: Q01DX005 (ip), vehicle: saline",122 % of control and 123 % of control
same,T/C,"dose: 12.5 mg/kg/injection, schedule: Q01DX005 (ip), vehicle: saline",118 % of control
CCCCOC(OCCCC)C(C)N (configuration not stated),T/C,"dose: 12.5 mg/kg/injection, schedule: Q01DX005 (ip), vehicle: saline with Tween-80",108 % of control
same,T/C,"dose: 25.0 mg/kg/injection, schedule: Q01DX005 (ip), vehicle: saline with Tween-80",106 % of control
same,T/C,[1],103 % of control and 107 % of control
CN(C)C1C(=O)C(C(=O)NCNC(CO)(CO)CO)=C(O)C2(O)C(=O)C3=C(O)c4c(O)cccc4C(C)(O)C3CC12 (configuration not stated),T/C,"dose: 50.0 mg/kg/injection, schedule: Q01DX005 (ip), vehicle: saline",92 % of control
same,T/C,"dose: 100.0 mg/kg/injection, schedule: Q01DX005 (ip), vehicle: saline",101 % of control
same,T/C,"dose: 200.0 mg/kg/injection, schedule: Q01DX005 (ip), vehicle: saline",100 % of control
CN=C1CN=C(OP(=O)(N2CCOCC2)N2CCOCC2)c2cc(Cl)ccc2N1,T/C,"dose: 50.0 mg/kg/injection, schedule: Q01DX009 (ip), vehicle: Klucel (hydroxypropylcellulose) (HPC)",98 % of control
same,T/C,"dose: 100.0 mg/kg/injection, schedule: Q01DX009 (ip), vehicle: Klucel (hydroxypropylcellulose) (HPC)",101 % of control
same,T/C,"dose: 200.0 mg/kg/injection, schedule: Q01DX009 (ip), vehicle: Klucel (hydroxypropylcellulose) (HPC)",100 % of control
COC(=S)C(=S)OC,T/C,"dose: 12.5 mg/kg/injection, schedule: Q01DX009 (ip), vehicle: saline with Tween-80",108 % of control
same,T/C,"dose: 25.0 mg/kg/injection, schedule: Q01DX009 (ip), vehicle: saline with Tween-80",108 % of control
O=NNc1ccc2cccnc2n1,T/C,"dose: 3.12 mg/kg/injection, schedule: Q01DX009 (ip), vehicle: water",99 % of control and 115 % of control
same,T/C,"dose: 6.25 mg/kg/injection, schedule: Q01DX009 (ip), vehicle: water",116 % of control and 123 % of control
same,T/C,"dose: 25.0 mg/kg/injection, schedule: Q01DX009 (ip), vehicle: water",150 % of control
same,T/C,"dose: 50.0 mg/kg/injection, schedule: Q01DX009 (ip), vehicle: water",187 % of control and 206 % of control
CCCCS(=O)CCC(N)C(=O)O (configuration not stated),T/C,[2],98 % of control
same,T/C,[3],94 % of control
same,T/C,[4],93 % of control
COc1cc2c(c(=O)c3ccccc3n2C)c2c1c(=O)c1ccccc1n2C,T/C,[5],96 % of control
same,T/C,[6],98 % of control
N=C(N)c1cccc([N+](=O)[O-])c1,T/C,[7],98 % of control
same,T/C,[8],96 % of control
C=CCC1(C)C(=O)CCC1=O,T/C,[2],110 % of control
same,T/C,[3],102 % of control
same,T/C,[4],98 % of control
CC(C)c1nccn1Cc1ccccc1,T/C,"dose: 15.0 mg/kg/injection, schedule: Q01DX005 (ip), vehicle: saline",101 % of control
same,T/C,"dose: 30.0 mg/kg/injection, schedule: Q01DX005 (ip), vehicle: saline",99 % of control
same,T/C,"dose: 60.0 mg/kg/injection, schedule: Q01DX005 (ip), vehicle: saline",101 % of control and 90 % of control
COC(=O)C1=CCC23CC[C@H](C(C)(/C=C/C=C(\C)C(=O)O)OC2=O)[C@]3(O)CC1 (some centres not stated),T/C,"dose: 3.88 mg/kg/injection, schedule: Q01DX005 (ip), vehicle: sodium bicarbonate",87 % of control
same,T/C,"dose: 7.75 mg/kg/injection, schedule: Q01DX005 (ip), vehicle: sodium bicarbonate",100 % of control
same,T/C,"dose: 15.5 mg/kg/injection, schedule: Q01DX005 (ip), vehicle: sodium bicarbonate",103 % of control
same,T/C,"dose: 31.0 mg/kg/injection, schedule: Q01DX005 (ip), vehicle: sodium bicarbonate",108 % of control
CC1[C@@H]2CC=C3[C@H]4CCC5Cc6nc7c(nc6C[C@@]5(C)C4(O)CC(=O)[C@]32CO[C@]12OC(C)(C)CC2O)CC1CC[C@@H]2C3=C[C@H]4O[C@@]5(O[C@@](C)(CO)C[C@@H]5O)C(C)[C@@]4(O)[C@]3(C)[C@@H](O)CC2[C@]1(C)C7 (some centres not stated),T/C,"dose: 10.0 micrograms/kg/injection, schedule: Q01DX005 (ip), vehicle: saline + alcohol",114 % of control and 117 % of control
same,T/C,"dose: 20.0 micrograms/kg/injection, schedule: Q01DX005 (ip), vehicle: saline + alcohol",121 % of control
CC(=O)N(OC1OC(CO)C(O)C(O)C1O)c1ccc(Oc2ccc(Cl)cc2)cc1 (configuration not stated),T/C,[5],104 % of control
same,T/C,[6],92 % of control
Cc1cccc(CC(C)(O)Cc2cccc(C)n2)n1,T/C,"dose: 50.0 mg/kg/injection, schedule: Q01DX009 (ip), vehicle: other",100 % of control
same,T/C,"dose: 100.0 mg/kg/injection, schedule: Q01DX009 (ip), vehicle: other",100 % of control
same,T/C,"dose: 200.0 mg/kg/injection, schedule: Q01DX009 (ip), vehicle: other",122 % of control
CCN(Cc1ccc(CN(CC)C(=O)c2sc3ccccc3c2Cl)cc1)C(=O)c1sc2ccccc2c1Cl,T/C,[7],101 % of control
same,T/C,[8],100 % of control
same,T/C,"dose: 200.0 mg/kg/injection, schedule: Q01DX009 (ip), vehicle: saline",93 % of control
COC(=O)/C=C(\O)C(Cc1cc(OC)c2c(c1O)C(=O)c1c(OC)cccc1C2=O)C(=O)OC (configuration not stated),T/C,"dose: 100.0 mg/kg/injection, schedule: Q01DX001 (ip), vehicle: saline with Tween-80",101 % of control
same,T/C,"dose: 200.0 mg/kg/injection, schedule: Q01DX001 (ip), vehicle: saline with Tween-80",102 % of control
same,T/C,"dose: 400.0 mg/kg/injection, schedule: Q01DX001 (ip), vehicle: saline with Tween-80",97 % of control
C=C1CC2(CCCC3(C2)OCCO3)OC1=O (configuration not stated),T/C,"dose: 50.0 mg/kg/injection, schedule: Q01DX005 (ip), vehicle: Klucel (hydroxypropylcellulose) (HPC)",95 % of control
same,T/C,"dose: 100.0 mg/kg/injection, schedule: Q01DX005 (ip), vehicle: Klucel (hydroxypropylcellulose) (HPC)",95 % of control
same,T/C,"dose: 200.0 mg/kg/injection, schedule: Q01DX005 (ip), vehicle: Klucel (hydroxypropylcellulose) (HPC)",106 % of control
CC(C)C(NC(=O)C1(NC(=O)OCc2ccccc2)CCCC1)C(=O)O (configuration not stated) (Cbz-[Ac5c]-[ξV]-OH),T/C,[1],99 % of control
same,T/C,[9],96 % of control
same,T/C,[10],99 % of control
CCn1c(=O)c2[nH]c(Cl)nc2n(CC)c1=O,T/C,"dose: 25.0 mg/kg/injection, schedule: Q04DX003 (ip), vehicle: water",91 % of control
same,T/C,"dose: 50.0 mg/kg/injection, schedule: Q04DX003 (ip), vehicle: water",103 % of control
same,T/C,"dose: 100.0 mg/kg/injection, schedule: Q04DX003 (ip), vehicle: water",112 % of control
O=C(O)c1ccccc1-c1ccc2ccccc2c1,T/C,[1],94 % of control
same,T/C,[9],105 % of control
same,T/C,[10],110 % of control
COC(=O)C1(c2ccc(OC)cc2)NC(c2ccccc2)C2C(=O)N(c3ccc(OC)cc3)C(=O)C21 (configuration not stated),T/C,[2],95 % of control
same,T/C,[3],96 % of control
same,T/C,[4],89 % of control
COC(=O)C[C@](O)(CCC(C)(C)O)C(=O)O[C@@H]1C(OC)=C[C@]23CCCN2CCc2cc4c(cc2[C@H]13)OCO4,T/C,"dose: 0.5 mg/kg/injection, schedule: Q01DX009 (ip), vehicle: saline",177 % of control
same,T/C,"dose: 1.0 mg/kg/injection, schedule: Q01DX009 (ip), vehicle: saline",231 % of control
Oc1ccccc1/C=N/Nc1ccc2ccccc2n1,T/C,"dose: 25.0 mg/kg/injection, schedule: Q04DX003 (ip), vehicle: saline",96 % of control
same,T/C,"dose: 50.0 mg/kg/injection, schedule: Q04DX003 (ip), vehicle: saline",95 % of control
same,T/C,"dose: 100.0 mg/kg/injection, schedule: Q04DX003 (ip), vehicle: saline",102 % of control
same,T/C,"dose: 200.0 mg/kg/injection, schedule: Q04DX003 (ip), vehicle: saline",93 % of control
O=C1CC(O)(c2ccccc2)CCS1 (configuration not stated),T/C,"dose: 100.0 mg/kg/injection, schedule: Q04DX003 (ip), vehicle: Klucel (hydroxypropylcellulose) (HPC)",99 % of control
same,T/C,"dose: 200.0 mg/kg/injection, schedule: Q04DX003 (ip), vehicle: Klucel (hydroxypropylcellulose) (HPC)",107 % of control
same,T/C,"dose: 400.0 mg/kg/injection, schedule: Q04DX003 (ip), vehicle: Klucel (hydroxypropylcellulose) (HPC)",106 % of control
